Consider 34 compounds from patent US10370356B2, “Pyridinone dicarboxamide for use as bromodomain inhibitors” (GlaxoSmithKline Intellectual Property (No. 2) Limited, priority 2015, dated 2019).

Counter-ions that a name gives are not always drawn. A value given as a limit tells only on which side of the number the result lay.

One assay addresses T1, BRD4 BD2 (Homo sapiens, UniProt O60885, Y97A).
T1 construct: BRD4 (1-477) (Y97A) and (Y390A); made in house; host or cells: E. coli (pET15b vector)
Description: BRD4 BD2 mutant TR-FRET competition assay. The format is binding. Particulars: average of N recorded values, read-out: BRD4 BD2 IC50 (average value) (converted). In general terms: Time-resolved FRET reads energy transfer from a long-lived donor to a nearby acceptor.
In the case of `CNC(=O)c1cc(C(=O)NCCC[C@H]2OC[C@H](N)CO2)cn(Cc2ccccc2)c1=O` [Example 88, N^5-(3-((2r,5r)-5-Amino-1,3-dioxan-2-yl)propyl)-1-benzyl-N^3-methyl-2-oxo-1,2-dihydropyridine-3,5-dicarboxamide], the IC50 is 50.1 nM. On to `CNC(=O)c1cc(C(=O)NCCCC2CCN(CCF)CC2)cn(Cc2ccccc2)c1=O` [Example 29, 1-Benzyl-N^5-(3-(1-(2-fluoroethyl)piperidin-4-yl)propyl)-N^3-methyl-2-oxo-1,2-dihydropyridine-3,5-dicarboxamide. formic acid salt], for which the IC50 was 25.1 nM. For `CNC(=O)c1cc(C(=O)NCCCC2CCN(C)CC2)cn(Cc2ccccc2)c1=O` [Example 7, 1-Benzyl-N^3-methyl-N^5-(3-(1-methylpiperidin-4-yl)propyl)-2-oxo-1,2-dihydropyridine-3,5-dicarboxamide], the IC50 was 31.6 nM. On the same count and under the same terms, the same measure for `CNC(=O)c1cc(C(=O)NCCCC2CCN(CCO)CC2)cn(Cc2ccccc2)c1=O` [Example 25]: 39.8 nM.

The same assay, now with this note: read-out: pIC50 in the BRD4 BD2 assay (converted).
As to `CNC(=O)c1cc(C(=O)NCCOC2CCCNC2)cn(Cc2ccccc2)c1=O` (centres unmarked) [Example 68, 1-benzyl-N^3-methyl-2-oxo-N^5-(2-(piperidin-3-yloxy)ethyl)-1,2-dihydropyridine-3,5-dicarboxamide], the IC50 was 100 to 1000 nM. In the case of `CNC(=O)c1cc(C(=O)NCCCC2CCN(C(C)=O)CC2)cn(Cc2cccc3[nH]ccc23)c1=O` [Example 74], the IC50 was not above 100 nM. Turning to `CNC(=O)c1cc(C(=O)NCCC[C@H]2OC[C@H](N)CO2)cn(Cc2ccccc2)c1=O` [Example 88, N^5-(3-((2r,5r)-5-Amino-1,3-dioxan-2-yl)propyl)-1-benzyl-N^3-methyl-2-oxo-1,2-dihydropyridine-3,5-dicarboxamide], the IC50 was not above 100 nM.

As for `CNC(=O)c1cc(C(=O)NCCCC2CCNCC2)cn(Cc2ccc(F)cc2)c1=O` [Example 22, 1-(4-Fluorobenzyl)-N^3-methyl-2-oxo-N-(3-(piperidin-4-1)propyl)-1,2-dihydropyridine-3,5-dicarboxamide], the IC50 is not above 100 nM. As for `CNC(=O)c1cc(C(=O)NCCC2CN(C)CCO2)cn(Cc2ccccc2)c1=O` (centres unmarked) [Example 64, 1-benzyl-N^3-methyl-N^5-(2-(4-methylmorpholin-2-yl)ethyl)-2-oxo-1,2-dihydropyridine-3,5-dicarboxamide], the IC50 is 100 to 1000 nM.

On to `CNC(=O)c1cc(C(=O)NCCC2CCN(C)CC2)cn(Cc2ccccc2)c1=O` [Example 3, 1-Benzyl-N^3-methyl-N^5-(2-(1-methylpiperidin-4-yl)ethyl)-2-oxo-1,2-dihydropyridine-3,5-dicarboxamide], for which the IC50 is not above 100 nM. As for `CNC(=O)c1cc(C(=O)NC2COC2)cn(Cc2ccccc2)c1=O` [Example 91, 1-benzyl-N^3-methyl-N^5-(oxetan-3-yl)-2-oxo-1,2-dihydropyridine-3,5-dicarboxamide], the IC50 is 100 to 1000 nM. Consider `CNC(=O)c1cc(C(=O)NCCC2CCNCC2)cn(Cc2cccc(C)c2)c1=O` [Example 16, N^3-Methyl-1-(3-methylbenzyl)-2-oxo-N^5-(2-(piperidin-4-yl)ethyl)-1,2-dihydropyridine-3,5-dicarboxamide], for which the IC50 was not above 100 nM. Regarding `CNC(=O)c1cc(C(=O)NCC2CCS(=O)(=O)CC2)cn(Cc2ccccc2)c1=O` [Example 53, 1-Benzyl-N^5-((1,1-dioxidotetrahydro-2H-thiopyran-4-yl)methyl)-N^3-methyl-2-oxo-1,2-dihydropyridine-3,5-dicarboxamide], the IC50 is 1000 to 100000 nM. Still for that read-out and setting: the same measure for `CNC(=O)c1cc(C(=O)N[C@H]2[C@@H]3CN(C(C)=O)C[C@@H]32)cn(Cc2cccc3[nH]ccc23)c1=O` [Example 81, 1-((1H-Indol-4-yl)methyl)-N^5-((1R,5S,6s)-3-acetyl-3-azabicyclo[3.1.0]hexan-6-yl)-N^3-methyl-2-oxo-1,2-dihydropyridine-3,5-dicarboxamide]: not above 100 nM; for `CNC(=O)c1cc(C(=O)NC2CN(C)C2)cn(Cc2ccccc2)c1=O` [Example 34, 1-Benzyl-N^3-methyl-N^5-(1-methylazetidin-3-yl)-2-oxo-1,2-dihdyropyridine-3,5-dicarboxamide]: 1000 to 100000 nM. Regarding `CNC(=O)c1cc(C(=O)NCCCC2CCCN(C)C2)cn(Cc2ccccc2)c1=O` (centres unmarked) [Example 70, 1-Benzyl-N^3-methyl-N^5-(3-(1-methylpiperidin-3-yl)propyl)-2-oxo-1,2-dihydropyridine-3,5-dicarboxamide], the IC50 was not above 100 nM. Same read-out and setting: with `CNC(=O)c1cc(C(=O)NCCC2CCNCC2)cn(Cc2cccc(OCCO)c2)c1=O` [Example 24, 1-(3-(2-Hydroxyethoxy)benzyl)-N^3-methyl-2-oxo-N^5-(2-(piperidin-4-yl)ethyl)-1,2-dihydropyridine-3,5-dicarboxamide] the figure was not above 100 nM. Take `CNC(=O)c1cc(C(=O)NCCCC2CCNCC2)cn(Cc2cccc(C)c2F)c1=O` [Example 26, 1-(2-Fluoro-3-methylbenzyl)-N^3-methyl-2-oxo-N^5-(3-(piperidin-4-yl)propyl)-1,2-dihydropyridine-3,5-dicarboxamide]: the IC50 is not above 100 nM.

For `CNC(=O)c1cc(C(=O)NC2CCS(=O)(=O)CC2)cn(Cc2ccccc2)c1=O` [Example 44, 1-Benzyl-N^5-(1,1-dioxidotetrahydro-2H-thiopyran-4-yl)-N^3-methyl-2-oxo-1,2-dihydropyridine-3,5-dicarboxamide], the IC50 was 100 to 1000 nM. In the case of `CNC(=O)c1cc(C(=O)NCCCC2CCN(CCF)CC2)cn(Cc2ccccc2)c1=O` [Example 29, 1-Benzyl-N^5-(3-(1-(2-fluoroethyl)piperidin-4-yl)propyl)-N^3-methyl-2-oxo-1,2-dihydropyridine-3,5-dicarboxamide. formic acid salt], the IC50 was not above 100 nM.

For the compound `CNC(=O)c1cc(C(=O)NCCCN2CCNCC2)cn(Cc2ccccc2)c1=O` [Example 12, 1-Benzyl-N^3-methyl-2-oxo-N^5-(3-(piperazin-1-yl)propyl)-1,2-dihydropyridine-3,5-dicarboxamide, hydrochloride], the IC50 is not above 100 nM. Same read-out and setting: the same measure for `CNC(=O)c1cc(C(=O)N[C@H]2[C@@H]3CN(CCN)C[C@@H]32)cn(Cc2cccc3[nH]ccc23)c1=O` [Example 86, 1-((1H-Indol-4-yl)methyl)-N^5-((1R,5S,6s)-3-(2-aminoethyl)-3-azabicyclo[3.1.0]hexan-6-yl)-N^3-methyl-2-oxo-1,2-dihydropyridine-3,5-dicarboxamide]: not above 100 nM; for `CNC(=O)c1cc(C(=O)NCCCC2CCN(C)CC2)cn(Cc2ccccc2)c1=O` [Example 7, 1-Benzyl-N^3-methyl-N^5-(3-(1-methylpiperidin-4-yl)propyl)-2-oxo-1,2-dihydropyridine-3,5-dicarboxamide]: not above 100 nM; for `CNC(=O)c1cc(C(=O)NCCOC2CCNCC2)cn(Cc2ccccc2)c1=O` [Example 89, 1-benzyl-N^3-methyl-2-oxo-N^5-(2-(piperidin-4-yloxy)ethyl)-1,2-dihydropyridine-3,5-dicarboxamide hydrochloride]: 100 to 1000 nM.

For the compound `CNC(=O)c1cc(C(=O)NCCOC2CCNC2)cn(Cc2ccccc2)c1=O` (centres unmarked) [Example 67, 1-benzyl-N3-methyl-2-oxo-N5-(2-(pyrrolidin-3-yloxy)ethyl)-1,2-dihydropyridine-3,5-dicarboxamide, hydrochloride], the IC50 was 100 to 1000 nM. As to `CNC(=O)c1cc(C(=O)N[C@H]2[C@@H]3CNC[C@@H]32)cn(Cc2cccc3[nH]ccc23)c1=O` [Example 80], the IC50 was not above 100 nM. For `CNC(=O)c1cc(C(=O)NCCCC2CCNCC2)cn(Cc2ccccc2F)c1=O` [Example 14, 1-(2-Fluorobenzyl)-N^3-methyl-2-oxo-N^5-(3-(piperidin-4-yl)propyl)-1,2-dihydropyridine-3,5-dicarboxamide], the IC50 was not above 100 nM. With `CCNC(=O)c1cc(C(=O)NCC[C@@H]2CNCCO2)cn(Cc2ccccc2)c1=O` [Example 83, (R)-1-benzyl-N^3-ethyl-N^5-(2-(morpholin-2-yl)ethyl)-2-oxo-1,2-dihydropyridine-3,5-dicarboxamide], the IC50 is 100 to 1000 nM.

As for `CCN1CCC(CCCNC(=O)c2cc(C(=O)NC)c(=O)n(Cc3ccccc3)c2)CC1` [Example 11, 1-Benzyl-N^5-(3-(1-ethylpiperidin-4-yl)propyl)-N^3-methyl-2-oxo-1,2-dihydropyridine-3,5-dicarboxamide], the IC50 is not above 100 nM.

For `CNC(=O)c1cc(C(=O)N[C@H]2[C@@H]3CN(C(=O)OC(C)(C)C)C[C@@H]32)cn(Cc2cccc3[nH]ccc23)c1=O` [Example 79, (1R,5S,6s)-tert-Butyl 6-(1-((1H-indol-4-yl)methyl)-5-(methylcarbamoyl)-6-oxo-1,6-dihydropyridine-3-carboxamido)-3-azabicyclo[3.1.0]hexane-3-carboxylate], the IC50 is not above 100 nM. As to `CCNC(=O)c1cc(C(=O)NCCCC2CCNCC2)cn(Cc2ccccc2)c1=O` [Example 78, 1-benzyl-N^3-ethyl-2-oxo-N^5-(3-(piperidin-4-yl)propyl)-1,2-dihydropyridine-3,5-dicarboxamide], the IC50 was 100 to 1000 nM. Take `CNC(=O)c1cc(C(=O)NC2CC3OCCCC23)cn(Cc2ccccc2)c1=O` (centres unmarked) [Example 35, 1-Benzyl-N^5-(2-oxabicyclo[4.2.0]octan-7-yl)-N^3-methyl-2-oxo-1,2-dihydropyridine-3,5-dicarboxamide]: the IC50 was 1000 to 100000 nM.

Consider `CNC(=O)c1cc(C(=O)NCCCN2CCN(C)CC2)cn(Cc2ccccc2)c1=O` [Example 51, 1-Benzyl-N^3-methyl-N^5-(3-(4-methylpiperazin-1-yl)propyl)-2-oxo-1,2-dihydropyridine-3,5-dicarboxamide], for which the IC50 is 100 to 1000 nM. With `CNC(=O)c1cc(C(=O)NC2CCS(=O)(=O)C2)cn(Cc2ccccc2)c1=O` (centres unmarked) [Example 43, 1-Benzyl-N^5-(1,1-dioxidotetrahydrothiophen-3-yl)-N^3-methyl-2-oxo-1,2-dihydroypridine-3,5-dicarboxamide], the IC50 is 100 to 1000 nM.

On to `CNC(=O)c1cc(C(=O)NCCCC2CCN(CCO)CC2)cn(Cc2ccccc2)c1=O` [Example 25], for which the IC50 was not above 100 nM. As for `CNC(=O)c1cc(C(=O)NCCCC2CCNCC2)cn([C@H](C)c2ccccc2)c1=O` [Example 17, (R)-N^3-Methyl-2-oxo-1-(1-phenylethyl)-N^5-(3-(piperidin-4-yl)propyl)-1,2-dihydropyridine-3,5-dicarboxamide], the IC50 is not above 100 nM. Still for that read-out and setting: with `CNC(=O)c1cc(C(=O)NCC2CCS(=O)(=O)C2)cn(Cc2ccccc2)c1=O` (centres unmarked) [Example 48, 1-Benzyl-N^5-((1,1-dioxidotetrahydrothiophen-3-yl)methyl)-N^3-methyl-2-oxo-1,2-dihydropyridine-3,5-dicarboxamide] the figure was 1000 to 100000 nM. Regarding `CNC(=O)c1cc(C(=O)NCCC2CCNCC2)cn(Cc2ccccc2)c1=O` [Example 2, 1-Benzyl-N^3-methyl-2-oxo-N^5-(2-(piperidin-4-yl)ethyl)-1,2-dihydropyridine-3,5-dicarboxamide], the IC50 is not above 100 nM.
